Laboratory results from US20260070886A1, “QUINOLINE PIPERAZINE DERIVATIVES, PHARMACEUTICAL COMPOSITION AND USES THEREOF” (priority 2022, published 2026).
pIC50: −log10 of the molar value.

Legend:
[1] = tested on: A549 cells; experiment: Cell cytotoxicity assay, A549 cells; type: cell-based; details: Homo sapiens, 72 hours, percent cytotoxicity against DMSO control; for cytotoxicity at 1 µM: 1 μM compound, read-out: Cell toxicity A549 cells 1 μM; for cytotoxicity at 10 µM: 10 μM compound, read-out: Cell toxicity A549 cells 10 μM
Excerpt: (§1) The following human derived non-small cell lung cancer cell lines were used to test the efficiency of the compounds to cause cell death and assess the anti-cancer properties of said compounds: 1. A549 cells: adenocarcinomic human alveolar basal epithelial cells; these cells are used as models for the study of lung cancer and the development of drug therapies against it • 2. NCI-H-460 cells are also human lung cancer cells, and • 3. NCI-H-522 cells are also human lung cancer cells.
(§2) 500 cells/well/30 μL were seeded in a 384 well cell culture plate. Incubated over night at 37° C., 5% CO2 in cell culture incubator. 10 μL of 4× compound was added to the plates, and incubated for 72 hours at 37° C., 5% CO2 in cell culture incubator. Assay DMSO control were included for 0% cytotoxicity control. Assay was terminated by addition of 10 μL of the reagent CTG 2.0 detection reagent #G9242. Plates were incubated for 20 minute incubation at room temperature with shaking Plate were read in Envision. Ultrasensitive luminescence and data was analyzed and percent cytotoxicity of compounds was determined against DMSO control.
(§3) All the compounds, A1-A116, were tested for cell toxicity using said non-small cell lung cancer cell lines using the above described method.

[2] = tested on: NCI-H-460 cells; experiment: Cell cytotoxicity assay, NCI-H-460 cells; type: cell-based; details: Homo sapiens, NCI-H460, 72 hours, percent cytotoxicity against DMSO control; for cytotoxicity at 1 µM: 1 μM compound, read-out: Cell toxicity NCI-H-460 cells 1 μM; for cytotoxicity at 10 µM: 10 μM compound, read-out: Cell toxicity NCI-H-460 cells 10 μM
Excerpt: as §1, §2, §3

[3] = tested on: NCI-H-522 cells; experiment: Cell cytotoxicity assay, NCI-H-522 cells; type: cell-based; details: Homo sapiens, NCI-H522, 72 hours, percent cytotoxicity against DMSO control; for cytotoxicity at 1 µM: 1 μM compound, read-out: Cell toxicity NCI-H-522 cells 1 μM; for cytotoxicity at 10 µM: 10 μM compound, read-out: Cell toxicity NCI-H-522 cells 10 μM
Excerpt: as §1, §2, §3

[4] = tested on: A549; experiment: CellTiter Glo assay, A549; type: cell-based; details: Homo sapiens, 72 hours, 10 point DRC, 100 μM top, read-out: Cytotoxicity IC50 A549
Excerpt: as §1
(§4) Cells were cultured and maintained in F12K+10% FBS+1× anti-anti media and RPMI+10% FBS+1× anti-anti media. Cells were trypsinised and expanded to ensure that cells are not over-confluent and are in log growth phase. On day 0, 500 cells/well were seeded in 30 μl media using cell culture treated white flat bottom 384 well plate, centrifuged at 40×g for 10 seconds and incubated overnight in […], 5% CO2 incubator. On day 1, 4× concentration of compounds were prepared in complete media, 10 μl was added to cells, centrifuged at 40×g for 10 seconds and incubated 72 hours in 37° C., 5% CO2 incubator. Compounds tested: 100 μM top, 3 fold dilution and 10 point DRC in triplicate. Final DMSO concentration was maintained at 0.5% for all compound. No compound/DMSO was used as a control. On day 4 (72 hours post treatment) plates were brought to room temperature for 10 min 10 μl of CellTiter Glo reagent was added to each well and placed the plates on an orbital shaker for 10 minutes at room temperature. Luminescence signal was read on the Envision plate reader using the ultra-sensitive luminescence protocol. Data was plotted and analyzed using the below formula: DMSO control treated cells RLU considered as 100% cell viability.
(§5) Table 7 provides the IC50 values for cell toxicity of most efficient derivatives of Formula A.

[5] = tested on: NCI-H-460; experiment: CellTiter Glo assay, NCI-H-460; type: cell-based; details: Homo sapiens, NCI-H460; 72 hours, 10 point DRC, 100 μM top; read-out: Cytotoxicity IC50 NCI-H-460
Excerpt: as §1, §4, §5

[6] = tested on: NCI-H-522; experiment: CellTiter Glo assay, NCI-H-522; type: cell-based; details: Homo sapiens, NCI-H522; 72 hours, 10 point DRC, 100 μM top; read-out: Cytotoxicity IC50 NCI-H-522
Excerpt: as §1, §4, §5

[7] = tested on: Non-small cell lung cancer cell lines; experiment: Cell toxicity assay, overall statement; type: cell-based; details: summary in words of Table 6
Excerpt: as §1, §2, §3
These selected derivatives of Formula A were further tested to confirm their efficiency as anti-cancer compounds.

[8] = tested on: Non-small cell lung cancer cell lines; experiment: Cell Titer Glo assay, overall statement; type: cell-based, human; details: summary in words
Excerpt: as §1, §4, §5

## COc1cc(Nc2nc(N3CCN(c4ccnc5cc(Cl)ccc45)CC3)cc(C(F)(F)F)n2)cc(OC)c1 [Compound A1, 4-(4-(7-chloroquinolin-4-yl)piperazin-1-yl)-N-(3,5-dimethoxyphenyl)-6-(trifluoromethyl)pyrimidin-2-amine]
[1]
  cytotoxicity at 1 µM: 42%
  cytotoxicity at 10 µM: 97%
[2]
  cytotoxicity at 1 µM: 19%
  cytotoxicity at 10 µM: 82%
[3]
  cytotoxicity at 1 µM: 21%
  cytotoxicity at 10 µM: 50%
[4]
  pIC50: 5.80
[5]
  pIC50: 5.62
[6]
  pIC50: 5.52
[7]
  activity against Non-small cell lung cancer (cell toxicity): active
[8]
  efficiency in cell toxicity against Non-small cell lung cancer cell lines: best efficiency

## COc1cncc(Nc2nc(N3CCN(c4ccnc5cc(Cl)ccc45)CC3)cc(C(F)(F)F)n2)c1 [Compound A7, 4-(4-(7-chloroquinolin-4-yl)piperazin-1-yl)-N-(5-methoxypyridin-3-yl)-6-(trifluoromethyl)pyrimidin-2-amine]
[1]
  cytotoxicity at 1 µM: 53%
  cytotoxicity at 10 µM: 65%
[2]
  cytotoxicity at 1 µM: -1%
  cytotoxicity at 10 µM: 25%
[3]
  cytotoxicity at 1 µM: 18%
  cytotoxicity at 10 µM: 42%
[4]
  pIC50: 5.38
[5]
  pIC50: 5.47
[6]
  pIC50: 5.59
[7]
  activity against Non-small cell lung cancer (cell toxicity): active
[8]
  efficiency in cell toxicity against Non-small cell lung cancer cell lines: best efficiency

## Fc1cccc(F)c1Nc1nc(N2CCN(c3ccnc4cc(Cl)ccc34)CC2)cc(C(F)(F)F)n1 [Compound A33, 4-(4-(7-chloroquinolin-4-yl)piperazin-1-yl)-N-(2,6-difluorophenyl)-6-(trifluoromethyl)pyrimidin-2-amine]
[1]
  cytotoxicity at 1 µM: 8%
  cytotoxicity at 10 µM: -8%
[2]
  cytotoxicity at 1 µM: -9%
  cytotoxicity at 10 µM: 3%
[3]
  cytotoxicity at 1 µM: 2%
  cytotoxicity at 10 µM: 17%
[7]
  activity against Non-small cell lung cancer (cell toxicity): active

## FC(F)(F)c1cc(N2CCN(c3ccnc4cc(Cl)ccc34)CC2)nc(Nc2ccncc2)n1 [Compound A36, 4-(4-(7-chloroquinolin-4-yl)piperazin-1-yl)-N-(pyridin-4-yl)-6-(trifluoromethyl)pyrimidin-2-amine]
[1]
  cytotoxicity at 1 µM: 0%
  cytotoxicity at 10 µM: 99%
[2]
  cytotoxicity at 1 µM: -11%
  cytotoxicity at 10 µM: 98%
[3]
  cytotoxicity at 1 µM: 2%
  cytotoxicity at 10 µM: 72%
[7]
  activity against Non-small cell lung cancer (cell toxicity): active

## Cc1cc(N2CCN(c3ccnc4cc(Cl)ccc34)CC2)nc(Nc2ccccc2)n1 [Compound A39, 4-(4-(7-chloroquinolin-4-yl)piperazin-1-yl)-6-methyl-N-phenylpyrimidin-2-amine]
[1]
  cytotoxicity at 1 µM: 4%
  cytotoxicity at 10 µM: 18%
[2]
  cytotoxicity at 1 µM: -11%
  cytotoxicity at 10 µM: -4%
[3]
  cytotoxicity at 1 µM: 1%
  cytotoxicity at 10 µM: 15%
[7]
  activity against Non-small cell lung cancer (cell toxicity): active

## FC(F)(F)c1cc(N2CCN(c3ccnc4cc(Cl)ccc34)CC2)nc(Nc2ccccc2)n1 [Compound A40, 4-(4-(7-chloroquinolin-4-yl)piperazin-1-yl)-N-phenyl-6-(trifluoromethyl)pyrimidin-2-amine]
[1]
  cytotoxicity at 1 µM: 15%
  cytotoxicity at 10 µM: 8%
[2]
  cytotoxicity at 1 µM: -12%
  cytotoxicity at 10 µM: -7%
[3]
  cytotoxicity at 1 µM: 6%
  cytotoxicity at 10 µM: 11%
[7]
  activity against Non-small cell lung cancer (cell toxicity): active

## COc1cc(Nc2nccc(N3CCN(c4ccnc5cc(Cl)ccc45)CC3)n2)cc(OC)c1 [Compound A41, 4-(4-(7-chloroquinolin-4-yl)piperazin-1-yl)-N-(3,5-dimethoxyphenyl)pyrimidin-2-amine]
[1]
  cytotoxicity at 1 µM: 23%
  cytotoxicity at 10 µM: 42%
[2]
  cytotoxicity at 1 µM: 2%
  cytotoxicity at 10 µM: 28%
[3]
  cytotoxicity at 1 µM: 7%
  cytotoxicity at 10 µM: 56%
[7]
  activity against Non-small cell lung cancer (cell toxicity): active

## COc1cc(Nc2nc(C)cc(N3CCN(c4ccnc5ccccc45)CC3)n2)cc(OC)c1 [Compound A42, N-(3,5-dimethoxyphenyl)-4-methyl-6-(4-(quinolin-4-yl)piperazin-1-yl)pyrimidin-2-amine]
[1]
  cytotoxicity at 1 µM: 68%
  cytotoxicity at 10 µM: 98%
[2]
  cytotoxicity at 1 µM: 4%
  cytotoxicity at 10 µM: 67%
[3]
  cytotoxicity at 1 µM: 20%
  cytotoxicity at 10 µM: 80%
[4]
  pIC50: 6.00
[5]
  pIC50: 5.63
[6]
  pIC50: 5.38
[7]
  activity against Non-small cell lung cancer (cell toxicity): active
[8]
  efficiency in cell toxicity against Non-small cell lung cancer cell lines: best efficiency

## COc1cc(Nc2nc(N3CCN(c4ccnc5ccccc45)CC3)cc(C(F)(F)F)n2)cc(OC)c1 [Compound A43, N-(3,5-dimethoxyphenyl)-4-(4-(quinolin-4-yl)piperazin-1-yl)-6-(trifluoromethyl)pyrimidin-2-amine]
[1]
  cytotoxicity at 1 µM: 88%
  cytotoxicity at 10 µM: 99%
[2]
  cytotoxicity at 1 µM: 8%
  cytotoxicity at 10 µM: 65%
[3]
  cytotoxicity at 1 µM: 48%
  cytotoxicity at 10 µM: 73%
[4]
  pIC50: 6.18
[5]
  pIC50: 6.03
[6]
  pIC50: 5.91
[7]
  activity against Non-small cell lung cancer (cell toxicity): active
[8]
  efficiency in cell toxicity against Non-small cell lung cancer cell lines: best efficiency

## COc1cc(Nc2nc(C)cc(N3CCN(c4ccnc5cc(C(F)(F)F)ccc45)CC3)n2)cc(OC)c1 [Compound A44, N-(3,5-dimethoxyphenyl)-4-methyl-6-(4-(7-(trifluoromethyl)quinolin-4-yl)piperazin-1-yl)pyrimidin-2-amine]
[1]
  cytotoxicity at 1 µM: 26%
  cytotoxicity at 10 µM: 18%
[2]
  cytotoxicity at 1 µM: 0%
  cytotoxicity at 10 µM: 7%
[3]
  cytotoxicity at 1 µM: 8%
  cytotoxicity at 10 µM: 26%
[7]
  activity against Non-small cell lung cancer (cell toxicity): active

## COc1cc(Nc2nc(N3CCN(c4ccnc5cc(C(F)(F)F)ccc45)CC3)cc(C(F)(F)F)n2)cc(OC)c1 [Compound A45, N-(3,5-dimethoxyphenyl)-4-(trifluoromethyl)-6-(4-(7-(trifluoromethyl)quinolin-4-yl)piperazin-1-yl)pyrimidin-2-amine]
[1]
  cytotoxicity at 1 µM: 8%
  cytotoxicity at 10 µM: 83%
[2]
  cytotoxicity at 1 µM: 0%
  cytotoxicity at 10 µM: 12%
[3]
  cytotoxicity at 1 µM: 7%
  cytotoxicity at 10 µM: 55%
[7]
  activity against Non-small cell lung cancer (cell toxicity): active

## COc1cc(Nc2nc(C)cc(N3CCN(c4ncnc5ccccc45)CC3)n2)cc(OC)c1 [Compound A46, N-(3,5-dimethoxyphenyl)-4-methyl-6-(4-(quinazolin-4-yl)piperazin-1-yl)pyrimidin-2-amine]
[1]
  cytotoxicity at 1 µM: 25%
  cytotoxicity at 10 µM: 98%
[2]
  cytotoxicity at 1 µM: -2%
  cytotoxicity at 10 µM: 44%
[3]
  cytotoxicity at 1 µM: 2%
  cytotoxicity at 10 µM: 66%
[7]
  activity against Non-small cell lung cancer (cell toxicity): active

## COc1cc(Nc2nc(N3CCN(c4ncnc5ccccc45)CC3)cc(C(F)(F)F)n2)cc(OC)c1 [Compound A47, N-(3,5-dimethoxyphenyl)-4-(4-(quinazolin-4-yl)piperazin-1-yl)-6-(trifluoromethyl)pyrimidin-2-amine]
[1]
  cytotoxicity at 1 µM: 38%
  cytotoxicity at 10 µM: 44%
[2]
  cytotoxicity at 1 µM: 4%
  cytotoxicity at 10 µM: 12%
[3]
  cytotoxicity at 1 µM: 45%
  cytotoxicity at 10 µM: 43%
[7]
  activity against Non-small cell lung cancer (cell toxicity): active
